Laboratory results published in patent publication US10793553B2, “TLR7/8 antagonists and uses thereof” (Merck Patent GmbH, priority 2017, dated 2020).
Where a name gives a salt, the structure may show the parent alone.

Columns and labels:
TLR7 = target: T1, TLR7 (Homo sapiens, UniProt Q9NYK1); assay: HEK TLR7 Cell Assay; type: cell-based; conditions: TLR7/NFKb HEK cells, R848 agonist 10 uM final, Steady-Glo readout
T1 construct: expressed in transfected cells; host or cells: HEK cells carrying TLR7 and an NFkB luciferase reporter
T1 sequence (Q9NYK1 27-1049): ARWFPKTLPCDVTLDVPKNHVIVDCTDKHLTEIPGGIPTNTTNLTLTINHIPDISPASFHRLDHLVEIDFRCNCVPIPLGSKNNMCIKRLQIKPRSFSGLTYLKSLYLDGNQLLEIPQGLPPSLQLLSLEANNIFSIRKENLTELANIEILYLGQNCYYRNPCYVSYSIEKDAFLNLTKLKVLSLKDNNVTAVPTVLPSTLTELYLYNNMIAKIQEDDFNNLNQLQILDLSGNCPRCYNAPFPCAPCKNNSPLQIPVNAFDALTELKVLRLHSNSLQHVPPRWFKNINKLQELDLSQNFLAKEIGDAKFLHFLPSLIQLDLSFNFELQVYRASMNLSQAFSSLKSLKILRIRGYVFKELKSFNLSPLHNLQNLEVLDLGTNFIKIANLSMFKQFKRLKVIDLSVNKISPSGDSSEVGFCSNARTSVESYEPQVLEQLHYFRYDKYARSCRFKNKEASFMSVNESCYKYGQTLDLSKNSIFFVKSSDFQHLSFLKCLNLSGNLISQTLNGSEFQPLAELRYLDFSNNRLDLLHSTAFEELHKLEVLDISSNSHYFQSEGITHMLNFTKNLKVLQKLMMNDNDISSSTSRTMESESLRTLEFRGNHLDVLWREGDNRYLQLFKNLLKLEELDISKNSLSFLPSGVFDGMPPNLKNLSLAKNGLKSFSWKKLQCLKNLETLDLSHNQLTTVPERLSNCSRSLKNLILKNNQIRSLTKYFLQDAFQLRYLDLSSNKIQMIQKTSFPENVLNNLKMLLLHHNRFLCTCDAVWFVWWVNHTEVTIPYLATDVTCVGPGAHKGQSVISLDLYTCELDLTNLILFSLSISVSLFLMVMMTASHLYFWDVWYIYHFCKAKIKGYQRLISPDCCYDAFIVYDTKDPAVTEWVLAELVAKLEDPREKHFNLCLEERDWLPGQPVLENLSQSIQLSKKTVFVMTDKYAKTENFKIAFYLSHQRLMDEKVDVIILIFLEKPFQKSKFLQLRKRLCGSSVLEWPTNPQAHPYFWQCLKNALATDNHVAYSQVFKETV
Procedure: Example 24: HEK TLR7 Cell Assay
(§1) Into 384 CulturePlates (Corning 3707) was placed 5000 c/w of TLR7/NFKb HEK cells in 30 uL DMEM without Phenol red (gibco #31053) and 10% FCS-HI, 2 mM L-Glutamine, 1% Pen/Strept. The cells are incubated for 24 h at 37 degrees Celsius, and 10% carbon dioxide. Dispense 3 uL of controls, standards, and compounds to wells, incubate for 30 min then add 3 uL of R848 (10 uM final concentration) agonist in 20 mM Hepes. Incubate for 5 hours and then allow to stand at room temperature for 15 min. Add 10 uL of Steady-Glo substrate reagent and shake assay plate for 5 min at 1500 rpm. Let the assay plate sit for 30 min at room temperature and then read plate on EnVision.

TLR8 = target: T2, TLR8 (Homo sapiens, UniProt Q9NR97); assay: HEK TLR8 Cell Assay; type: cell-based; conditions: TLR8/NFKb HEK cells, R848 agonist 30 uM final, Steady-Glo readout
T2 construct: expressed in transfected cells; host or cells: HEK cells carrying TLR8 and an NFkB luciferase reporter
T2 sequence (Q9NR97 27-1041): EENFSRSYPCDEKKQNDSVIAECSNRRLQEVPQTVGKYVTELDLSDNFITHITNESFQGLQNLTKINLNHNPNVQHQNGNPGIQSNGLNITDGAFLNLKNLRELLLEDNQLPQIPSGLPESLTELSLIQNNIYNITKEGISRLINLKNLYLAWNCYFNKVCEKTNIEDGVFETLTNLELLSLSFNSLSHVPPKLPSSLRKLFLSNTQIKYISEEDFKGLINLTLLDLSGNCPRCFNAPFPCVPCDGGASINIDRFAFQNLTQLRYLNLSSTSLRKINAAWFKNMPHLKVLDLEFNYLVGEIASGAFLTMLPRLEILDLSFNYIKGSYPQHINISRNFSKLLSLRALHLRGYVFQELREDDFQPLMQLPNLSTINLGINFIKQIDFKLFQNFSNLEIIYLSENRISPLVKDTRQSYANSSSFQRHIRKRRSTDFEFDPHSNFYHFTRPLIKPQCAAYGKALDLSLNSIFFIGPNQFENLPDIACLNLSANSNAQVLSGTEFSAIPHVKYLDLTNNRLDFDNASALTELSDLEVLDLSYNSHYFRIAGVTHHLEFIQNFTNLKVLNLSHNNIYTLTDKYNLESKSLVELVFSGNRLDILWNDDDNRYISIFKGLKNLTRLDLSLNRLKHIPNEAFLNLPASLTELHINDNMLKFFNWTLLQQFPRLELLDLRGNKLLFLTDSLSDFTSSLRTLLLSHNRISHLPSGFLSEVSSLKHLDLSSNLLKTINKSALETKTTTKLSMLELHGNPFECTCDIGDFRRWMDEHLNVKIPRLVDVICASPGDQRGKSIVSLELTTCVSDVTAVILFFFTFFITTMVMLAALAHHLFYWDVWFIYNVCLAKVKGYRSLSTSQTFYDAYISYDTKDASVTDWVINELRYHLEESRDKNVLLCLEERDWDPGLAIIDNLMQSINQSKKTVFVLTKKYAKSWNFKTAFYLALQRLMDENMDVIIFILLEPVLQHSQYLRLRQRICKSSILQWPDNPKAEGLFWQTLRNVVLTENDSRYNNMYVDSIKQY
Procedure: Example 25: HEK TLR8 Cell Assay
as §1, with “TLR8/NFKb” for “TLR7/NFKb”, “(30” for “(10”

SMILES | IC50 (TLR7) [nM] | IC50 (TLR8) [µM]
CC(C)[C@@H](O)C(=O)N[C@H]1CN(c2ccc(C(F)(F)F)c3ncccc23)C[C@H]1C [Compound 32, (2R)-2-hydroxy-3-methyl-N-[(3R,4R)-4-methyl-1-[8-(trifluoromethyl)quinolin-5-yl]pyrrolidin-3-yl]butanamide] | > 10000 | > 10
Cc1ccc(N2C[C@@H](C)[C@@H](N)C2)c2cccnc12 [Compound 33, (3R,4R)-4-methyl-1-(8-methylquinolin-5-yl)pyrrolidin-3-amine] | > 10000 | > 10
Cc1ccc(N2C[C@@H](C)[C@@H](NC(=O)[C@H](O)C(C)C)C2)c2cccnc12 [Compound 48, (2R)-2-hydroxy-3-methyl-N-[(3R,4R)-4-methyl-1-(8-methylquinolin-5-yl)pyrrolidin-3-yl]butanamide] | > 10000 | > 10
Cc1ncc(N2C[C@@H](C)[C@@H](N)C2)c2cccnc12 [Compound 51, (3R,4R)-4-methyl-1-(8-methyl-[1,7]naphthyridin-5-yl)-pyrrolidin-3-ylamine hydrochloride] | 1000 to 10000 | > 10
Cc1ncc(N2C[C@@H](C)[C@@H](NC(=O)CC3CN(C)C3)C2)c2cccnc12 [Compound 53, 2-(1-methyl-azetidin-3-yl)-N-[(3R,4R)-4-methyl-1-(8-methyl-[1,7]naphthyridin-5-yl)-pyrrolidin-3-yl]-acetamide] | 1000 to 10000 | > 10
CCN(CC)CCNC(=O)C1CCN(c2ccnc3nccnc23)C1 (stereo not drawn) [Compound 54, 1-pyrido[2,3-b]pyrazin-8-yl-pyrrolidine-3-carboxylic acid (2-diethylamino-ethyl)-amide] | > 10000 | > 10
Cc1cc2c(N3CCC(CNCCN4CCCCC4)C3)ccnc2n1C (stereo not drawn) [Compound 55, [1-(1,2-Dimethyl-1H-pyrrolo[2,3-b]pyridin-4-yl)-pyrrolidin-3-ylmethyl]-(2-piperidin-1-yl-ethyl)-amine] | 1000 to 10000 | > 10
CC1CN(c2ccc(C#N)c3nccnc23)CC1N (stereo not drawn) [Compound 56, 8-(3-Amino-4-methyl-pyrrolidin-1-yl)-quinoxaline-5-carbonitrile hydrochloride] | < 1000 | < 1

Results, then the molecule that gave them:

IC50 (TLR7) [nM] | IC50 (TLR8) [µM] | SMILES
< 1000 | < 1 | Cc1ccc(N2C[C@@H](C)[C@@H](NC(=O)CC3CCN(C)CC3)C2)c2cccnc12 [Compound 34, N-[(3R,4R)-4-methyl-1-(8-methylquinolin-5-yl)pyrrolidin-3-yl]-2-(1-methylpiperidin-4-yl)acetamide]
1000 to 10000 | > 10 | Cc1ccc(N2C[C@@H](C)[C@@H](NC(=O)CN3CCOCC3)C2)c2cccnc12 [Compound 39, N-[(3R,4R)-4-methyl-1-(8-methylquinolin-5-yl)pyrrolidin-3-yl]-2-(morpholin-4-yl)acetamide]
< 1000 | 1 to 10 | Cc1ccc(N2C[C@@H](C)[C@@H](NC(=O)CC3(C)CCN(C)CC3)C2)c2cccnc12 [Compound 40, 2-(1,4-dimethylpiperidin-4-yl)-N-[(3R,4R)-4-methyl-1-(8-methylquinolin-5-yl)pyrrolidin-3-yl]acetamide]
< 1000 | 1 to 10 | Cc1ccc(N2C[C@@H](C)[C@@H](NC(=O)CC3(F)CCNCC3)C2)c2cccnc12 [Compound 41, 2-(4-fluoropiperidin-4-yl)-N-[(3R,4R)-4-methyl-1-(8-methylquinolin-5-yl)pyrrolidin-3-yl]acetamide]
< 1000 | < 1 | Cc1ccc(N2C[C@@H](C)[C@@H](NC(=O)CC3(F)CCN(C)CC3)C2)c2cccnc12 [Compound 42, 2-(4-fluoro-1-methylpiperidin-4-yl)-N-[(3R,4R)-4-methyl-1-(8-methylquinolin-5-yl)pyrrolidin-3-yl]acetamide]
1000 to 10000 | > 10 | Cc1ccc(N2C[C@@H](C)[C@@H](NC(=O)[C@@H](O)C(C)C)C2)c2cccnc12 [Compound 47, (2S)-2-hydroxy-3-methyl-N-[(3R,4R)-4-methyl-1-(8-methylquinolin-5-yl)pyrrolidin-3-yl]butanamide]
< 1000 | > 10 | Cc1ncc(N2C[C@@H](C)[C@@H](NC(=O)CC3CCN(C)CC3)C2)c2cccnc12 [Compound 52, N-[(3R,4R)-4-methyl-1-(8-methyl-[1,7]naphthyridin-5-yl)-pyrrolidin-3-yl]-2-(1-methyl-piperidin-4-yl)-acetamide]
